Assay results as given in patent US12617814B2, “Neuroactive steroids and methods of use thereof” (Sage Therapeutics, LLC, priority 2013, dated 2026).

Target: NMDA receptor (GRIN1/GRIN2A) (Homo sapiens, UniProt Q05586+Q12879)
Assay: NMDA potentiation, two electrode voltage clamp (TEVC) of Xenopus oocytes expressing NMDA receptor
Assay type: cell-based
Settings: 10 μM compound, 3 μM Glutamate and Glycine
Experimental: NMDA potentiation was assessed using either whole cell patch clamp of mammalian cells which expressed NMDA receptors, or using two-electrode voltage clamp (TEVC) of Xenopus Laevis oocytes expressing NMDA receptors.
The Two Electrode Voltage Clamp (TEVC) technique was used to investigate the effects of compounds (10 μM) on the NMDA receptor (GRIN1/GRIN2A) expressed in Xenopus oocytes. Glutamate/Glycine peak and steady-state currents were recorded from oocytes that expressed the NMDA receptor and the modulatory effects of the test items on these currents were investigated.
Ovaries were harvested from Xenopus Laevis females that had been deeply anesthetized by cooling at 4° C. and immersion in Tricaine methanesulfonate (MS-222 at a concentration of 150 mg/L) in sodium bicarbonate (300 mg/L). Once anesthetized the animal was decapitated and pithed following the rules of animal rights from the Geneva canton. A small piece of ovary was isolated for immediate preparation while the remaining part was placed at 4° C. in a sterile Barth solution containing in mM NaCl 88, KCl 1, NaHCO3 2.4, HEPES 10, MgSO4·7H2O 0.82, Ca(NO3)2·4H2O 0.33, CaCl2·6H2O 0.41, at pH 7.4, and supplemented with 20 μg/ml of kanamycin, 100 unit/ml penicillin and 100 μg/ml streptomycin. All recordings were performed at 18° C. and cells were super-fused with medium containing in mM: NaCl 82.5, KCl 2.5, HEPES 5, CaCl2·2H2O, ·6H2O 1, pH 7.4.
Oocytes were injected with either cDNAs encoding for the human GRIN1 and GRIN2A subunits, using a proprietary automated injection device (Hogg et al., J. Neurosci. Methods, (2008) 169: 65-75) and receptor expression was assessed using electrophysiology at least two days later. The ratio of cDNA injection for GRIN1 and GRIN2A was 1:1. Electrophysiological recordings were made using an automated process equipped with standard TEVC and data were captured and analyzed using a proprietary data acquisition and analysis software running under Matlab (Mathworks Inc.). The membrane potential of the oocytes was maintained at −80 mV throughout the experiments. To explore the effects of proprietary compounds, currents were evoked by applying 3 μM Glutamate and […] Glycine for 10 s. Oocytes were then washed for 90 s before being exposed to the test article at a concentration of 10 μM for 120 s. Following this, 3 μM Glutamate and […] Glycine were immediately reapplied for 10 s. Potentiation of both the peak current and the steady state current was assessed. For statistical analysis values were computed either with Excel (Microsoft) or Matlab (Mathworks Inc.). To obtain mean measurements with standard deviations, all experiments were carried out using at least three cells.
Glutamate was prepared as a concentrated stock solution ([…]) in water and then diluted in the recording medium to obtain the desired test concentration. Glycine was prepared as a stock solution at 1 M in water. Compounds were prepared as stock solution ([…]) in DMSO and then diluted in the recording medium to obtain the desired test concentration.

Sequence of NMDA receptor (GRIN1/GRIN2A) (Q12879 23-1464, other chains not shown): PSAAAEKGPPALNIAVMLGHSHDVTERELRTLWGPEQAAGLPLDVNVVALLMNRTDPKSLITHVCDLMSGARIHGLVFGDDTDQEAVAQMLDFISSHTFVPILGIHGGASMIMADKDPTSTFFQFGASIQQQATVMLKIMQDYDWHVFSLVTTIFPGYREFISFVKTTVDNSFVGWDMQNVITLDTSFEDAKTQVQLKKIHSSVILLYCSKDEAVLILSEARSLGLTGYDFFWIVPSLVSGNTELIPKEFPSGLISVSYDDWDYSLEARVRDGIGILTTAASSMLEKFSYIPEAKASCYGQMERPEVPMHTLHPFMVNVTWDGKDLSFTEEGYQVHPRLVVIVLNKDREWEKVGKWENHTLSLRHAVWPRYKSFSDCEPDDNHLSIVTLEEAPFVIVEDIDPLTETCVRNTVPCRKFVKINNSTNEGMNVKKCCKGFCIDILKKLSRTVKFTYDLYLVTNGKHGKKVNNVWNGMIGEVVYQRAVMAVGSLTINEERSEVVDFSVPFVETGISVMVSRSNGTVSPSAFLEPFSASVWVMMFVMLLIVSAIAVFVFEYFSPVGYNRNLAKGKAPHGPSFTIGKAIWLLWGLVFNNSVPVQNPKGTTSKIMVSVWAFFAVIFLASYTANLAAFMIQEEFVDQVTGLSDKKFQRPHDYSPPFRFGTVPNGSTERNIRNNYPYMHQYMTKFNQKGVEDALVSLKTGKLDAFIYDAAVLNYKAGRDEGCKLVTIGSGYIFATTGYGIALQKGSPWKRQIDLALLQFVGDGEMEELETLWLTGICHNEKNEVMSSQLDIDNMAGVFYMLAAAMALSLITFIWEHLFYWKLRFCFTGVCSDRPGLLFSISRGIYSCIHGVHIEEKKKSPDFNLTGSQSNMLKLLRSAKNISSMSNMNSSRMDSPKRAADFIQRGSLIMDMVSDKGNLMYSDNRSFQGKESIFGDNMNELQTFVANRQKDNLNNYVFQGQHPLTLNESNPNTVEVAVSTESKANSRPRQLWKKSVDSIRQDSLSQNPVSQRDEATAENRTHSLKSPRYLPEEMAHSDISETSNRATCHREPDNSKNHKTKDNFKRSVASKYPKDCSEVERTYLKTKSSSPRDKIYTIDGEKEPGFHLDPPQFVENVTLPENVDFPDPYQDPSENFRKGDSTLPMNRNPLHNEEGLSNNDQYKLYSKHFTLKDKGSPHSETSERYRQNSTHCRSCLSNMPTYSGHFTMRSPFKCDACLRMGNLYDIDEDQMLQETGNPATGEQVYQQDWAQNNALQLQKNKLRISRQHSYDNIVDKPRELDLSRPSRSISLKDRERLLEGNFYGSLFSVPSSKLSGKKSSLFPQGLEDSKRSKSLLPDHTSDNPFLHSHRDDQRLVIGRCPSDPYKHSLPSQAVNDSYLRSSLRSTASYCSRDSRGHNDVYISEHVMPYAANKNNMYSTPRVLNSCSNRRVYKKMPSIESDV

| Compound | activation at 10 µM [%] |
| --- | --- |
| CC[C@]1(O)CC[C@@]2(C)C(=CC[C@H]3[C@@H]4CC[C@H]([C@H](C)CCC(O)C(F)(F)F)[C@@]4(C)CC[C@@H]32)C1 (stereo partly shown) [Compound 2-4] | > 100 |
| CC[C@]1(O)CC[C@@]2(C)[C@@H](CC[C@@H]3[C@@H]2CC[C@]2(C)[C@@H]([C@H](C)CCC(O)C(F)(F)F)CC[C@@H]32)C1 (stereo partly shown) [Compound 2-5] | 50 to 100 |
| CC[C@]1(O)CC[C@@]2(C)C(=CC[C@H]3[C@@H]4CC[C@H]([C@H](C)CC[C@@H](O)C(F)(F)F)[C@@]4(C)CC[C@@H]32)C1 [Compound 2-7] | > 100 |
| CC[C@]1(O)CC[C@@]2(C)C(=CC[C@H]3[C@@H]4CC[C@H]([C@H](C)CC[C@H](O)C(F)(F)F)[C@@]4(C)CC[C@@H]32)C1 [Compound 2-8] | 50 to 100 |
| CC[C@]1(O)CC[C@@]2(C)[C@@H](CC[C@@H]3[C@@H]2CC[C@]2(C)[C@@H]([C@H](C)CC[C@H](O)C(F)(F)F)CC[C@@H]32)C1 [Compound 2-10] | 10 to 50 |
| C[C@H](CCC(C)(O)C(F)(F)F)[C@H]1CC[C@H]2[C@@H]3CC=C4C[C@@](C)(O)CC[C@]4(C)[C@H]3CC[C@]12C (stereo partly shown) [Compound 3-2] | > 100 |
| C[C@H](CCC(C)(O)C(F)(F)F)[C@H]1CC[C@H]2[C@@H]3CC[C@H]4C[C@@](C)(O)CC[C@]4(C)[C@H]3CC[C@]12C (stereo partly shown) [Compound 3-3] | 50 to 100 |
| C[C@H](CC[C@](C)(O)C(F)(F)F)[C@H]1CC[C@H]2[C@@H]3CC=C4C[C@@](C)(O)CC[C@]4(C)[C@H]3CC[C@]12C [Compound 3-5] | 10 to 50 |
| C[C@H](CC[C@@](C)(O)C(F)(F)F)[C@H]1CC[C@H]2[C@@H]3CC=C4C[C@@](C)(O)CC[C@]4(C)[C@H]3CC[C@]12C [Compound 3-6] | 50 to 100 |
| C[C@H](CC[C@@](C)(O)C(F)(F)F)[C@H]1CC[C@H]2[C@@H]3CC[C@H]4C[C@@](C)(O)CC[C@]4(C)[C@H]3CC[C@]12C [Compound 3-7] | 10 to 50 |
| C[C@H](CC[C@](C)(O)C(F)(F)F)[C@H]1CC[C@H]2[C@@H]3CC[C@H]4C[C@@](C)(O)CC[C@]4(C)[C@H]3CC[C@]12C [Compound 3-8] | 50 to 100 |
| CC[C@@](C)(O)CC[C@@H](C)[C@H]1CC[C@H]2[C@@H]3CC[C@H]4C[C@@](C)(O)CC[C@]4(C)[C@H]3CC[C@]12C [Compound 4-9] | 10 to 50 |
| CC[C@](C)(O)CC[C@@H](C)[C@H]1CC[C@H]2[C@@H]3CC[C@H]4C[C@@](C)(O)CC[C@]4(C)[C@H]3CC[C@]12C [Compound 4-10] | 10 to 50 |
| CC[C@@](C)(O)CC[C@@H](C)[C@H]1CC[C@H]2[C@@H]3CC=C4C[C@@](C)(O)CC[C@]4(C)[C@H]3CC[C@]12C [Compound 4-11] | > 100 |
| CC[C@](C)(O)CC[C@@H](C)[C@H]1CC[C@H]2[C@@H]3CC=C4C[C@@](C)(O)CC[C@]4(C)[C@H]3CC[C@]12C [Compound 4-12] | 50 to 100 |
| CCC[C@](C)(O)CC[C@@H](C)[C@H]1CC[C@H]2[C@@H]3CC=C4C[C@@](C)(O)CC[C@]4(C)[C@H]3CC[C@]12C [Compound 5-5] | 10 to 50 |
| CCC[C@@](C)(O)CC[C@@H](C)[C@H]1CC[C@H]2[C@@H]3CC=C4C[C@@](C)(O)CC[C@]4(C)[C@H]3CC[C@]12C [Compound 5-6] | 10 to 50 |

| Compound | activation at 10 µM [%] |
| --- | --- |
| CCC[C@](C)(O)CC[C@@H](C)[C@H]1CC[C@H]2[C@@H]3CC[C@H]4C[C@@](C)(O)CC[C@]4(C)[C@H]3CC[C@]12C [Compound 5-7] | 50 to 100 |
| CCC[C@@](C)(O)CC[C@@H](C)[C@H]1CC[C@H]2[C@@H]3CC[C@H]4C[C@@](C)(O)CC[C@]4(C)[C@H]3CC[C@]12C [Compound 5-8] | 50 to 100 |
| C[C@H](CCC(C)(O)CCCO)[C@H]1CC[C@H]2[C@@H]3CC=C4C[C@@](C)(O)CC[C@]4(C)[C@H]3CC[C@]12C (stereo partly shown) [Compound 6-3] | 50 to 100 |
| C=CCC(C)(O)CC[C@@H](C)[C@H]1CC[C@H]2[C@@H]3CC[C@H]4C[C@@](C)(O)CC[C@]4(C)[C@H]3CC[C@]12C (stereo partly shown) [Compound 6-6] | 50 to 100 |
| C=CC[C@@](C)(O)CC[C@@H](C)[C@H]1CC[C@H]2[C@@H]3CC=C4C[C@@](C)(O)CC[C@]4(C)[C@H]3CC[C@]12C [Compound 6-8] | 10 to 50 |
| C[C@H](CC[C@@](C)(O)CCCO)[C@H]1CC[C@H]2[C@@H]3CC=C4C[C@@](C)(O)CC[C@]4(C)[C@H]3CC[C@]12C [Compound 6-9] | 10 to 50 |
| C=CC[C@](C)(O)CC[C@@H](C)[C@H]1CC[C@H]2[C@@H]3CC[C@H]4C[C@@](C)(O)CC[C@]4(C)[C@H]3CC[C@]12C [Compound 6-11] | 10 to 50 |
| CCCC[C@](C)(O)CC[C@@H](C)[C@H]1CC[C@H]2[C@@H]3CC=C4C[C@@](C)(O)CC[C@]4(C)[C@H]3CC[C@]12C [Compound 7-4] | 50 to 100 |
| CCCC[C@@](C)(O)CC[C@@H](C)[C@H]1CC[C@H]2[C@@H]3CC=C4C[C@@](C)(O)CC[C@]4(C)[C@H]3CC[C@]12C [Compound 7-5] | 10 to 50 |
| CCCC[C@](C)(O)CC[C@@H](C)[C@H]1CC[C@H]2[C@@H]3CC[C@H]4C[C@@](C)(O)CC[C@]4(C)[C@H]3CC[C@]12C [Compound 7-6] | > 100 |
| CCCC[C@@](C)(O)CC[C@@H](C)[C@H]1CC[C@H]2[C@@H]3CC[C@H]4C[C@@](C)(O)CC[C@]4(C)[C@H]3CC[C@]12C [Compound 7-7] | 10 to 50 |
| CC(C)[C@@](C)(O)CC[C@@H](C)[C@H]1CC[C@H]2[C@@H]3CC[C@H]4C[C@@](C)(O)CC[C@]4(C)[C@H]3CC[C@]12C [Compound 8-5] | 10 to 50 |
| CC(C)[C@](C)(O)CC[C@@H](C)[C@H]1CC[C@H]2[C@@H]3CC[C@H]4C[C@@](C)(O)CC[C@]4(C)[C@H]3CC[C@]12C [Compound 8-6] | 10 to 50 |
| CC(C)[C@@](C)(O)CC[C@@H](C)[C@H]1CC[C@H]2[C@@H]3CC=C4C[C@@](C)(O)CC[C@]4(C)[C@H]3CC[C@]12C [Compound 8-7] | 50 to 100 |
| CC(C)[C@](C)(O)CC[C@@H](C)[C@H]1CC[C@H]2[C@@H]3CC=C4C[C@@](C)(O)CC[C@]4(C)[C@H]3CC[C@]12C [Compound 8-8] | > 100 |
| C[C@H](CC[C@@](C)(O)C1CC1)[C@H]1CC[C@H]2[C@@H]3CC=C4C[C@@](C)(O)CC[C@]4(C)[C@H]3CC[C@]12C [Compound 9-3] | 50 to 100 |
| C[C@H](CC[C@](C)(O)C1CC1)[C@H]1CC[C@H]2[C@@H]3CC=C4C[C@@](C)(O)CC[C@]4(C)[C@H]3CC[C@]12C [Compound 9-4] | 50 to 100 |
